What was measured:
[1] = system: A375 melanoma cell adherence to HUVEC; experiment: Adherence of A375 melanoma cells to HUVEC (flow cytometry); assay type: cell-based, human; conditions: 10 μM; compared to TNF treated control
Method: Human umbilical vein endothelial cells (HUVEC) (Clonetics, San Diego Calif.) were cultured in EGM-UV medium (Clonetics)and treated with TNFA for 20 hours to induce VCAM expression. A375 melanoma cells were electroporated with ISIS 107248 as described above. Using antibody to PECAM, a specific marker for endothelial cells, flow cytometry was used to quantitate the inhibition of adherence of A375 melanoma cells to HUVECs. Compared to control (TNF treated, no oligonucleotide), ISIS 107248 (10 μM) inhibited A375 melanoma cell adherence to HUVEC by approximately 85%. An antibody to integrin α4 inhibited adherence by approximately 72%. Melanoma cells represent a clinically relevant model because a statistically significant correlation has been shown between increased expression of VLA-4 expression(of which integrin α4 is one member) and time to progression and overall survival time of patients with melanoma. Schadendorf et al., J. Natl. Cancer Inst., 1995, 87, 366-371.

[2] = system: Mouse experimental autoimmune encephalomyelitis (EAE); experiment: Mouse experimental autoimmune encephalomyelitis (EAE) model for multiple sclerosis; assay type: in vivo, mouse (CSJLF-1); conditions: for Peak Severity: score 0 to 5; for effect on EAE given therapeutically: therapeutic
[3] = system: Mouse collagen-induced arthritis (CIA); experiment: Mouse collagen-induced arthritis (CIA) model for rheumatoid arthritis; assay type: in vivo, mouse (DBA/1LacJ)
Text: A model for human rheumatoid arthritis has been developed wherein mice are immunized with bovine type II collagen. Anderson et al., J. Immunol. 1991 147, 1189-1193, citing Trentham et al., J. Exp. Med 1977, 146, 857. Swelling and inflammation of the joints follows in approximately 3 weeks, with joint distortion and ankylosis typical of rheumatoid arthritis. This model has been used to study the effects of the antisense oligonucleotide 17044, targeted to mouse integrin α4, on arthritis in mice.
DBA/1LacJ mice were obtained from Jackson Laboratory, Bar Harbor, Me. Female mice aged 6 to 8 weeks were used and assigned to groups, ten mice per group. On day 0 mice were immunized at the base of the tail with 100 ug of bovine type II collagen which was emulsified in Complete Freund's Adjuvant (CFA). On day 7, a second booster dose of collagen was administered by the same route. On day 14 the mice were injected subcutaneously with 100 ug of lipopolysaccharide (LPS). Weights were recorded weekly. Mice were inspected daily for the onset of CIA, which is characterized by erythema and edema. Upon the onset of the disease, paw widths and rear ankle widths of affected and unaffected joints were measured three times a week using a constant tension caliper. In addition, limbs were clinically evaluated and graded 0-4, where 0=normal; 1=one digit swollen; 2=inflammation present in more than one digit; 3=joint distortion with or without inflammation; and 4=ankylosis, detected by joint manipulation. The progression of all measurements was recorded to day 50. At the end of the observation period for each mouse, all paws were removed and examined histologically.
The oligonucleotide, the positive control drug (cyclophosphamide, 5 mg/kg), and the vehicle were administered daily to each mouse intraperitoneally (IP) starting on day -3 and continuing for the duration of the study. Each animal received 10 mg/kg as a bolus daily dose.
In a preliminary study, a single 10 mg/kg daily dose of […] was administered from the time of disease induction to the conclusion of the study 50 days later. Arthritis incidence was reduced from 70 to 30% in the ISIS 17044-treated group.

[4] = EAE Experiment 1, 1 mg/kg daily SC
[5] = EAE Experiment 1, 5 mg/kg daily SC
[6] = EAE Experiment 1, 10 mg/kg daily SC
[7] = EAE Experiment 1, 20 mg/kg daily SC
[8] = EAE Experiment 3, 1 mg/kg 3× weekly
[9] = EAE Experiment 4, 0.01 mg/kg, prophylactic (P)
[10] = EAE Experiment 4, 0.1 mg/kg SC, prophylactic (P)
[11] = EAE Experiment 4, 1.0 mg/kg SC, prophylactic (P)
[12] = EAE Experiment 4, 1 mg/kg, therapeutic (T), day 18 to 31
[13] = EAE Experiment 4, 2.0 mg/kg SC, prophylactic (P)
[14] = EAE Experiment 5, 0.01 mg/kg, prophylactic (P)
[15] = EAE Experiment 5, 0.1 mg/kg SC, prophylactic (P)
[16] = EAE Experiment 5, 1.0 mg/kg SC, prophylactic (P)
[17] = EAE Experiment 5, 1 mg/kg, therapeutic (T), day 11 to 27
[18] = EAE Experiment 5, 2.0 mg/kg SC, prophylactic (P)
[19] = Table 23, mice with arthritis, 10 mg/kg

## 107248 (antisense CTGAGTCTGTTTTCCATTCT; chemistry not given here) [compound 107248]
[1]
  inhibition of A375 melanoma cell adherence to HUVEC: approximately 85%

## 17044 (CCGCAGCCATGCGCTCTTGG; phosphorothioate, 2'-MOE/deoxy, further chemistry not given here) [compound 17044]
[2]; EAE Experiment 1
  effect on EAE: reduced disease severity or delayed disease onset
[2]; [4]
  Days to Onset: 17.25 days
  Disease Incidence: 4/7
  Peak Severity: 0.29
[2]; [5]
  Days to Onset: 17 days
  Disease Incidence: 6/7
  Peak Severity: 1.86
[2]; [6]
  Days to Onset: 12.75 days
  Disease Incidence: 4/7
  Peak Severity: 2.0
[2]; [7]
  Days to Onset: 15 days
  Disease Incidence: 5/7
  Peak Severity: 1.43
[2]; EAE Experiment 2
  effect on EAE: reduced disease severity and delayed disease onset at all concentrations
[2]; EAE Experiment 2, 0.3 mg/kg SC
  Days to Onset: 16.57 days
  Disease Incidence: 7/7
  Peak Severity: 2.14
[2]; EAE Experiment 2, 1 mg/kg IV
  Days to Onset: 17.2 days
  Disease Incidence: 5/7
  Peak Severity: 1.42
[2]; EAE Experiment 2, 1 mg/kg SC
  Days to Onset: 18.25 days
  Disease Incidence: 4/7
  Peak Severity: 1.0
[2]; EAE Experiment 2, 3 mg/kg SC
  Days to Onset: 16.4 days
  Disease Incidence: 7/7
  Peak Severity: 2.29
[2]; EAE Experiment 3
  effect on EAE: reduced disease severity or delayed disease onset
[2]; EAE Experiment 3, 0.5 mg/kg SC
  Days to Onset: 21.4 days
  Disease Incidence: 5/6
  Peak Severity: 1.5
[2]; [8]
  Days to Onset: 20.3 days
  Disease Incidence: 6/7
  Peak Severity: 1.0
[2]; EAE Experiment 3, 1.0 mg/kg SC
  Days to Onset: 19.25 days
  Disease Incidence: 4/5
  Peak Severity: 1.5
[2]; EAE Experiment 3, 1.5 mg/kg SC
  Days to Onset: 17.5 days
  Disease Incidence: 4/7
  Peak Severity: 1.5
[2]; EAE Experiment 3, 2 mg/kg SC
  Days to Onset: 20 days
  Disease Incidence: 2/6
  Peak Severity: 0.83
[2]; [9]
  Days to Onset: 13.83 days
  Disease Incidence: 6/7
  Peak Severity: 1.86
[2]; [10]
  Days to Onset: 16.29 days
  Disease Incidence: 7/7
  Peak Severity: 1.57
[2]; [11]
  Days to Onset: 15 days
  Disease Incidence: 5/5
  Peak Severity: 2.2
[2]; [12]
  Days to Onset: 13.3 days
  Disease Incidence: 6/6
  Peak Severity: 1.83
[2]; [13]
  Days to Onset: 16.71 days
  Disease Incidence: 7/7
  Peak Severity: 2.29
[2]; EAE Experiment 4
  effect on EAE given therapeutically: reduced disease severity when given therapeutically
[2]; [14]
  Days to Onset: 11.57 days
  Disease Incidence: 7/7
  Peak Severity: 1.57
[2]; [15]
  Days to Onset: 12.67 days
  Disease Incidence: 6/7
  Peak Severity: 1.14
[2]; [16]
  Days to Onset: 11.33 days
  Disease Incidence: 6/7
  Peak Severity: 1.86
[2]; [17]
  Days to Onset: 12.71 days
  Disease Incidence: 7/7
  Peak Severity: 1.42
[2]; [18]
  Days to Onset: 12 days
  Disease Incidence: 7/7
  Peak Severity: 1.86
[2]; EAE Experiment 5
  effect on EAE given therapeutically: reduced disease severity when given therapeutically
[3]; Table 22, 10 mg/kg daily IP
  # Paws/Mouse (mean number of affected paws at termination): 0.7 ± 0.4
  Mean Day of Onset: 20.3 ± 1.9 days
  Peak Day of Inflamm. (day from onset to time of maximum swelling): 1.6 ± 0.8 days
  Severity (total clinical score/total number of mice in group): 2.1 ± 1.1
[3]; [19]
  Mean # of Paws Involved: 2.3 ± 0.3
  Mean Clinical Score: 7.0 ± 1.0
[3]; preliminary study, single 10 mg/kg daily dose, reduced from 70
  Arthritis incidence: 30%

From patent US6258790A, “Antisense modulation of integrin α4 expression” (Isis Pharmaceuticals, Inc., priority 1999, dated 2001)
